This is an account of results in patent publication US9381203B2, “Combination therapies for treatment of laminopathies, cellular aging, and atherosclerosis” (priority 2013, dated 2016).

The subject of the test is HGPS patients. In words: Kaplan-Meier survival analysis of treated vs. untreated HGPS patients. In kind it is in vivo, human. An excerpt:
Survival data of untreated subjects was collected from hospital case studies, newspaper articles, and other publicly available databases. “Untreated subjects” were defined as HGPS-diagnosed subjects who had no exposure to HGPS clinical treatment trial medications. In total, data from 155 subjects; including 100 deceased and 55 living, was used in the analysis, the cut-off date for which was Dec. 3, 2012.
“Treated subjects” were defined as all subjects who were enrolled in one or both of two HGPS farnesyltransferase inhibitor (FTI) clinical treatment trials to date, for any length of time. Treatment conditions for the initial, FTI-only, trial are described in Gordon et al., PNAS, 109:16666/16671, 2012. Treatment conditions for the three-drug combination of lonafarnib, pravastatin, and zoledronic acid, are described in Example 1. In total data from 43 subjects; including 4 deceased and 39 living, was included in the analysis.
Kaplan-Meier survival analyses were carried out using SAS statistical analysis software.

Turning to `NC(=O)N1CCC(CC(=O)N2CCC([C@H]3c4ncc(Br)cc4CCc4cc(Cl)cc(Br)c43)CC2)CC1` [FTI, lonafarnib], under “all subject groupings of FIG. 5, FTI only or with pravastatin and zoledronic acid”, the “Mean years of survival, treated vs. untreated” value is reported as “significant increase in mean years of survival”. In addition, the “Survival of treated vs. untreated patients (Kaplan-Meier)” value (entire sample, 43 treated (FTI only or with pravastatin and zoledronic acid) vs. 155 untreated, FIG. 1) is “significant survival benefit”.
